Measured values published in PubChem BioAssay AID1918956 (Molecular Pharmacology Branch, DTP, NCI, 2023).

System: OVCAR-5 complex spheroids, viability
Assay: Anticancer human tumor OVCAR-5 cell line growth inhibition;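 also: spheroids exposed to agents for seven days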;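 as to viability, T/C: 100% = DMSO vehicle control wells viability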
Conditions: for IC50: curve of first compound; for viability, T/C: stronger effect = lower value
How it was run: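 Multicellular complex spheroids of tumor cells with human endothelial cells (HUVEC) and mesenchymal stem cells; the LSD1 inhibitor iadademstat was combined with standard-of-care or investigational agents. Top concentration at or near clinical Cmax, half-log dilutions; final DMSO ≤0.25%.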

[1] = second compound 0.1 µM, first compound 0.0316 µM
[2] = second compound 0.1 µM, first compound 0.1 µM
[3] = second compound 0.1 µM, first compound 0.316 µM
[4] = second compound 0.1 µM, first compound 1 µM
[5] = second compound 0.1 µM, first compound 3.16 µM
[6] = second compound 0.1 µM, first compound 10 µM
[7] = second compound 0.316 µM, first compound 0.0316 µM
[8] = second compound 0.316 µM, first compound 0.1 µM
[9] = second compound 0.316 µM, first compound 0.316 µM
[10] = second compound 0.316 µM, first compound 1 µM
[11] = second compound 0.316 µM, first compound 3.16 µM
[12] = second compound 0.316 µM, first compound 10 µM
[13] = second compound 1 µM, first compound 0.0316 µM
[14] = second compound 1 µM, first compound 0.1 µM
[15] = second compound 1 µM, first compound 0.316 µM
[16] = second compound 1 µM, first compound 1 µM
[17] = second compound 1 µM, first compound 3.16 µM
[18] = second compound 1 µM, first compound 10 µM
[19] = second compound 3.16 µM, first compound 0.0316 µM
[20] = second compound 3.16 µM, first compound 0.1 µM
[21] = second compound 3.16 µM, first compound 0.316 µM
[22] = second compound 3.16 µM, first compound 1 µM
[23] = second compound 3.16 µM, first compound 3.16 µM
[24] = second compound 3.16 µM, first compound 10 µM
[25] = second compound 10 µM, first compound 0.0316 µM
[26] = second compound 10 µM, first compound 0.1 µM
[27] = second compound 10 µM, first compound 0.316 µM
[28] = second compound 10 µM, first compound 1 µM
[29] = second compound 10 µM, first compound 3.16 µM
[30] = second compound 10 µM, first compound 10 µM

Structure (SMILES) | IC50 (second compound 0.1 µM) [µM] | IC50 (second compound 0.316 µM) [µM] | IC50 (second compound 1 µM) [µM] | IC50 (second compound 3.16 µM) [µM] | IC50 (second compound 10 µM) [µM] | viability, T/C [1] [%] | viability, T/C [2] [%] | viability, T/C [3] [%] | viability, T/C [4] [%] | viability, T/C [5] [%] | viability, T/C [6] [%] | viability, T/C [7] [%] | viability, T/C [8] [%] | viability, T/C [9] [%] | viability, T/C [10] [%] | viability, T/C [11] [%] | viability, T/C [12] [%] | viability, T/C [13] [%] | viability, T/C [14] [%] | viability, T/C [15] [%] | further results
O=C(c1cc(Cc2n[nH]c(=O)c3ccccc23)ccc1F)N1CCN(C(=O)C2CC2)CC1 + NC1CCC(NC2CC2c2ccccc2)CC1 | > 10 | > 10 | > 10 | > 10 | > 10 | 110 | 116 | 104 | 102 | 92.9 | 90.5 | 101 | 105 | 105 | 101 | 98.2 | 89.7 | 103 | 103 | 106 | viability, T/C [16]: 88%; viability, T/C [17]: 95.3%; viability, T/C [18]: 82%; viability, T/C [19]: 95.6%; viability, T/C [20]: 101%; viability, T/C [21]: 93%; viability, T/C [22]: 100%; viability, T/C [23]: 88.5%; viability, T/C [24]: 74.2%; viability, T/C [25]: 92.4%; viability, T/C [26]: 97%; viability, T/C [27]: 96.3%; viability, T/C [28]: 83.2%; viability, T/C [29]: 79%; viability, T/C [30]: 61.1%
CC1COCCN1c1cc(C2(S(C)(=N)=O)CC2)nc(-c2ccnc3[nH]ccc23)n1 (stereo not given) + NC1CCC(NC2CC2c2ccccc2)CC1 | 2.53 | 2.62 | 3.03 | 2.7 | 2.2 | 102 | 116 | 97.7 | 69.9 | 47.4 | 35.6 | 108 | 103 | 94.7 | 70 | 45.8 | 37.2 | 109 | 99.5 | 97.8 | viability, T/C [16]: 70.9%; viability, T/C [17]: 50.5%; viability, T/C [18]: 36%; viability, T/C [19]: 104%; viability, T/C [20]: 106%; viability, T/C [21]: 97%; viability, T/C [22]: 70.2%; viability, T/C [23]: 48.4%; viability, T/C [24]: 37.1%; viability, T/C [25]: 84%; viability, T/C [26]: 82.4%; viability, T/C [27]: 79.2%; viability, T/C [28]: 61.3%; viability, T/C [29]: 45.3%; viability, T/C [30]: 34%
